Assay results reported in ChEMBL document CHEMBL4028801, “A multifactorial approach to hepatobiliary transporter assessment enables improved therapeutic compound development” (Toxicol Sci, 2013).
Counter-ions that a name gives are not always drawn.

Columns and labels:
[1] = target: Bile salt export pump (Homo sapiens, UniProt O95342); experiment: Inhibition of human BSEP overexpressed in Sf9 cell membrane vesicles assessed as uptake of [3H]-taurocholate in presence of ATP measured after 15 to 20 mins by membrane vesicle transport assay; format: ADME, cell-based
[2] = target: ATP-binding cassette sub-family C member 2 (Homo sapiens, UniProt Q92887); experiment: Inhibition of human MRP2 overexpressed in Sf9 cell membrane vesicles assessed as uptake of [3H]-estradiol-17beta-D-glucuronide in presence of ATP and GSH measured after 20 mins by membrane vesicle transport assay
[3] = target: T1, ATP-binding cassette sub-family C member 4 (Homo sapiens, UniProt O15439); experiment: Inhibition of human MRP4 overexpressed in Sf9 cell membrane vesicles assessed as uptake of [3H]-estradiol-17beta-D-glucuronide in presence of ATP and GSH measured after 20 mins by membrane vesicle transport assay; format: ADME, cell-based
T1 sequence (O15439 whole entry): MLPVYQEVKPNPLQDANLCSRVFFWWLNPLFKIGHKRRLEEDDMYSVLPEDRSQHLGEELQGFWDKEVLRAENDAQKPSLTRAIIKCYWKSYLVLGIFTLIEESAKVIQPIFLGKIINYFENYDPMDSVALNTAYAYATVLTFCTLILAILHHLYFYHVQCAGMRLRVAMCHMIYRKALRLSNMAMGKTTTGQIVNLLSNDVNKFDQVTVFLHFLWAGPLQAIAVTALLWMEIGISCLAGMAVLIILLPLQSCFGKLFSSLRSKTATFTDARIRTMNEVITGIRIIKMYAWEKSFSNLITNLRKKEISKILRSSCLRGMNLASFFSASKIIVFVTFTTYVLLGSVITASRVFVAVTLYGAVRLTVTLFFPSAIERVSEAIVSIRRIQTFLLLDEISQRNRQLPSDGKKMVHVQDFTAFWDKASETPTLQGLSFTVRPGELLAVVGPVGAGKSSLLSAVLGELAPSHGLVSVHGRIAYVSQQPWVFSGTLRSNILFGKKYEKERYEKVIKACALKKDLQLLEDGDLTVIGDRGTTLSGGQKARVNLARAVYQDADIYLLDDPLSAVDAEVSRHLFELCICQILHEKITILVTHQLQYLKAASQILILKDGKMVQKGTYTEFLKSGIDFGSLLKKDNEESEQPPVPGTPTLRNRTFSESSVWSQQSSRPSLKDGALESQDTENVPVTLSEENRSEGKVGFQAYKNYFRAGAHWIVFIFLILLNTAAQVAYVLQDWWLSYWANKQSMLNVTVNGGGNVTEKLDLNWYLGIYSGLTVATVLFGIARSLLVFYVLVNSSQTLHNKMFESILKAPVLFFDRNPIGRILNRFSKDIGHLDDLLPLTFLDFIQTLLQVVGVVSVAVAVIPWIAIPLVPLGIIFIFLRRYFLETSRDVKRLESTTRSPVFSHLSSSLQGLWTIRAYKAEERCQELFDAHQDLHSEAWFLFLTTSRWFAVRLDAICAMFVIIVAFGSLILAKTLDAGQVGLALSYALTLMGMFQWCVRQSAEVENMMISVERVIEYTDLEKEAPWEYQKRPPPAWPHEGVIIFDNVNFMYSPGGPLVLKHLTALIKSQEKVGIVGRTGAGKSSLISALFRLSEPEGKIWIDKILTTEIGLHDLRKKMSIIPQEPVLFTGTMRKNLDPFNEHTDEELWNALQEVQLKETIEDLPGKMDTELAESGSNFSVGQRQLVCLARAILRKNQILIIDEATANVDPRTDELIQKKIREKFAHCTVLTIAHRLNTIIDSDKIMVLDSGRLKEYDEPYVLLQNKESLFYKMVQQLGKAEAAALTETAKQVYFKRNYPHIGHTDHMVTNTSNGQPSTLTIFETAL

[4] = target: ATP-binding cassette sub-family C member 3 (Homo sapiens, UniProt O15438); experiment: Inhibition of human MRP3 overexpressed in Sf9 insect cell membrane vesicles assessed as uptake of [3H]-estradiol-17beta-D-glucuronide in presence of ATP and GSH measured after 10 mins by membrane vesicle transport assay; format: ADME, cell-based
ATP-binding cassette sub-family C member 3, sequence (O15438 whole entry): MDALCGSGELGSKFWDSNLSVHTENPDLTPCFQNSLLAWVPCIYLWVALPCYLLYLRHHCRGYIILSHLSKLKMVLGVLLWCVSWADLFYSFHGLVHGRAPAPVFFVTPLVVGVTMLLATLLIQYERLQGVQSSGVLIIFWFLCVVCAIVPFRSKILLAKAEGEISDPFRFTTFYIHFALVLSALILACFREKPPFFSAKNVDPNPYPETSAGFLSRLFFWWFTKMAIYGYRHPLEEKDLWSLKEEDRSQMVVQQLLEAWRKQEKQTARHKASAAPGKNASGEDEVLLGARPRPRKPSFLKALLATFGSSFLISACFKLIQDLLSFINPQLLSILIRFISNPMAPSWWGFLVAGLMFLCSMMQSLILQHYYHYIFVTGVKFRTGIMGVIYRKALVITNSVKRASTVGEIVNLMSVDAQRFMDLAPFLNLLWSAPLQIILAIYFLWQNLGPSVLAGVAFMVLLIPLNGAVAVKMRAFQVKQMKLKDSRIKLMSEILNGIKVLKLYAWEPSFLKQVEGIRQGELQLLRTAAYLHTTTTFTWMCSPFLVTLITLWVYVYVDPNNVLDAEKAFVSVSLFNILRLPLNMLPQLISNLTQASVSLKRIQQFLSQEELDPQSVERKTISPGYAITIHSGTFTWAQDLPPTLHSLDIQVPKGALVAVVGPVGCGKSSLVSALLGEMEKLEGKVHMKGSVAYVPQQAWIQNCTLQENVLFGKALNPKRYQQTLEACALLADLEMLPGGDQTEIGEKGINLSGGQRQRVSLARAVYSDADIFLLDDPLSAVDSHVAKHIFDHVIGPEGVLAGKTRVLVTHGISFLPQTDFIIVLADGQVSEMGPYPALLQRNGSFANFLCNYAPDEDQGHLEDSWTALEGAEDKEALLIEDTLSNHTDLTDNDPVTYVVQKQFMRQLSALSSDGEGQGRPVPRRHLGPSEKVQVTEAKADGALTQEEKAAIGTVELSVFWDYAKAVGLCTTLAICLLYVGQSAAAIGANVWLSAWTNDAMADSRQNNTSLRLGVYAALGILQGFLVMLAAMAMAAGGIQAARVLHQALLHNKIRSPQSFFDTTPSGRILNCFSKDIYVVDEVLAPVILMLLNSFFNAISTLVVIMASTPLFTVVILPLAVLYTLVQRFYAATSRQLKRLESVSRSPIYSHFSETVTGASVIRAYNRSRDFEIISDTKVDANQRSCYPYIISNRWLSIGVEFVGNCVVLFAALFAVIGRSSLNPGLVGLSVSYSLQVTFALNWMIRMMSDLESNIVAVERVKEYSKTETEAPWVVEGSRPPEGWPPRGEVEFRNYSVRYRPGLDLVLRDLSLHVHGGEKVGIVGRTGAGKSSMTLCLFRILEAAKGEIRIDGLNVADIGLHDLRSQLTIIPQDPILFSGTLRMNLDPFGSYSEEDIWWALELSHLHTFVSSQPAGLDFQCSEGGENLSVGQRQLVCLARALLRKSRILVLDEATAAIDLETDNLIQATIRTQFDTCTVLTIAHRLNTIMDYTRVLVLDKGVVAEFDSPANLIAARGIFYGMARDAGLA

ATP-binding cassette sub-family C member 2, sequence (Q92887 whole entry): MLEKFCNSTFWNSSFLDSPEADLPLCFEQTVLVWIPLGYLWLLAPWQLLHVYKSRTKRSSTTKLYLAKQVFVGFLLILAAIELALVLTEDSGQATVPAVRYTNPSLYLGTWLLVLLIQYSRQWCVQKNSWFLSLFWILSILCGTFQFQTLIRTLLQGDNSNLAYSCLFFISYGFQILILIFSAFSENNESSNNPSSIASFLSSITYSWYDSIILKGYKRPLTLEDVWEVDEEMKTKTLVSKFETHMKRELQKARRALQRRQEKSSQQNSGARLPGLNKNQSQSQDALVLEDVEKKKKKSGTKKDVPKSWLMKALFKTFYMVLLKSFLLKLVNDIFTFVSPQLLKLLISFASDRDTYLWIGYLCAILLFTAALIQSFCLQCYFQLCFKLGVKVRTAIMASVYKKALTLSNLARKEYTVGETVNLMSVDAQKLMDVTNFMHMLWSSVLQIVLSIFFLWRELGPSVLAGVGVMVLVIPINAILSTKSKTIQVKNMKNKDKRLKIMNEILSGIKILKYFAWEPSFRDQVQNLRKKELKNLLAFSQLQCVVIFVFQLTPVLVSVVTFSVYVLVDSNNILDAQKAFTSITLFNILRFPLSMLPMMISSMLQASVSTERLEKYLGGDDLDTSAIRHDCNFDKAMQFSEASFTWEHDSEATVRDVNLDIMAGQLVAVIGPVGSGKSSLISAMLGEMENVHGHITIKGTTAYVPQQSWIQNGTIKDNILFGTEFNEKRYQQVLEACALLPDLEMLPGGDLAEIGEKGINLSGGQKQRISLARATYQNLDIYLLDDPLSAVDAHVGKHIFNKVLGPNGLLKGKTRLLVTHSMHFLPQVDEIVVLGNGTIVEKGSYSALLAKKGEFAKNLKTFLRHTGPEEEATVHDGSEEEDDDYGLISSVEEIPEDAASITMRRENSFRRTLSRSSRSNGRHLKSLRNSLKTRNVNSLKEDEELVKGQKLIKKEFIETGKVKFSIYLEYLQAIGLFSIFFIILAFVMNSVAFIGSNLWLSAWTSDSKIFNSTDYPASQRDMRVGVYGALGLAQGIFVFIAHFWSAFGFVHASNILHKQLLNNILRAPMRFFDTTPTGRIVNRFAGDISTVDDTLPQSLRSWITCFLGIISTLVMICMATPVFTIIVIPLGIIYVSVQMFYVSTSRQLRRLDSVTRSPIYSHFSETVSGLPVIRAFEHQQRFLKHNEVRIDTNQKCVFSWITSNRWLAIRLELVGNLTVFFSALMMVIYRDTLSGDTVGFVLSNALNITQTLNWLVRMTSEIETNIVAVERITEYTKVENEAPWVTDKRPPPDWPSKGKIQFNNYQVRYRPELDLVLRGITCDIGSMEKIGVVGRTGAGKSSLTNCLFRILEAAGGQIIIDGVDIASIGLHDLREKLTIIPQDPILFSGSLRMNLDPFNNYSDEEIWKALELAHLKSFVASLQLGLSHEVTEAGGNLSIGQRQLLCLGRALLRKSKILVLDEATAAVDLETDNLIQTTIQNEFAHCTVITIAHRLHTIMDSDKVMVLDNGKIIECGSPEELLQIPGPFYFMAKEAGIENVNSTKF
Bile salt export pump, sequence (O95342 whole entry): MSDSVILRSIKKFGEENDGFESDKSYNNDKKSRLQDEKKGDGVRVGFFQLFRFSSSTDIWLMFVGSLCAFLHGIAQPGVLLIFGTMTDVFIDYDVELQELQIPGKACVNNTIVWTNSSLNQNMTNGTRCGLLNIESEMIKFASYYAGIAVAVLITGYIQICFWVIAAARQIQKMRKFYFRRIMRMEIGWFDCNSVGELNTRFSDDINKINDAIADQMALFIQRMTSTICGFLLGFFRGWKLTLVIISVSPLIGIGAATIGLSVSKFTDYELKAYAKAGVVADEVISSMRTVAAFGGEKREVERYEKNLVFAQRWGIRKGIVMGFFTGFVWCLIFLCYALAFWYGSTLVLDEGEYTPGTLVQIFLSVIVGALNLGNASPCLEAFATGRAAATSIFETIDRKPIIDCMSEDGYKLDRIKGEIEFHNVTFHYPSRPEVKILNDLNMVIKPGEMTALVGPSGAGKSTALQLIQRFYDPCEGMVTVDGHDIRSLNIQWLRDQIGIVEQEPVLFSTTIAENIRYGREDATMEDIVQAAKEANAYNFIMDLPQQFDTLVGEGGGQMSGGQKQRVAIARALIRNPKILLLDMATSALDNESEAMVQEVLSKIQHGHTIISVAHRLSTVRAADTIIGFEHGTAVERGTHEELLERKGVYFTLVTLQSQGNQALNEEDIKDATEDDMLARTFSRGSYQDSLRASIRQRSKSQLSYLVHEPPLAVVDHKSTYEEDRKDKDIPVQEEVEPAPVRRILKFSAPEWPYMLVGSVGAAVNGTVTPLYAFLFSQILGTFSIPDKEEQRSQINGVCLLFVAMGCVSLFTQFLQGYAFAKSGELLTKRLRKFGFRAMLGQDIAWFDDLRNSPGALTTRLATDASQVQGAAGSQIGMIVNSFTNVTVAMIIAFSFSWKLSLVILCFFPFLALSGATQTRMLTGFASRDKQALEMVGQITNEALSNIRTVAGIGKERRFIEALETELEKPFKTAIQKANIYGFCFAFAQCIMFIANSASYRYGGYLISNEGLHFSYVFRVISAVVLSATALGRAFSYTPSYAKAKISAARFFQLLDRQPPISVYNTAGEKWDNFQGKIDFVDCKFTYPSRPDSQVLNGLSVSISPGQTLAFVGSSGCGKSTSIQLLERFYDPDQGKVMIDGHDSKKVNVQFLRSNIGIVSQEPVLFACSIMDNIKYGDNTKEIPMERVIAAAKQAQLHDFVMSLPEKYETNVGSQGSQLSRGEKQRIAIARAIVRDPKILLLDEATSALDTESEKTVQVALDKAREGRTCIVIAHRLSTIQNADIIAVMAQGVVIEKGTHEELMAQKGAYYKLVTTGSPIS

Structure (SMILES) | IC50 [1] [µM] | IC50 [2] [µM] | IC50 [3] [µM] | IC50 [4] [µM]
O=c1[nH]c(=O)n([C@H]2CCCO2)cc1F | > 133 | > 133 | > 133 | > 133
NC(=O)CC[C@@H]1NC(=O)[C@H](Cc2ccccc2)NC(=O)[C@H](Cc2ccc(O)cc2)NC(=O)[C@@H](N)CSSC[C@@H](C(=O)N2CCC[C@H]2C(=O)N[C@@H](CCCN=C(N)N)C(=O)NCC(N)=O)NC(=O)[C@H](CC(N)=O)NC1=O [VASOPRESSIN] | > 133 | > 133 | > 133 | > 133
CC(C)NNC(=O)c1ccncc1 [IPRONIAZID] | > 133 | > 133 | > 133 | > 133
CS(=O)(=O)N1CCN(Cc2cc3nc(-c4cccc5[nH]ncc45)nc(N4CCOCC4)c3s2)CC1 | 15.2 | > 133 | 2.7 | > 133
C[C@@H]1CCN(C(=O)CC#N)C[C@@H]1N(C)c1ncnc2[nH]ccc12 [TOFACITINIB] | > 133 | > 133 | > 133 | > 133
CC(C)OC(=O)OCOP(=O)(CO[C@H](C)Cn1cnc2c(N)ncnc21)OCOC(=O)OC(C)C [TENOFOVIR DISOPROXIL FUMARATE] | > 133 | > 133 | > 133 | > 133
Cc1nnc(SCC2=C(C(=O)O)N3C(=O)[C@@H](NC(=O)Cn4cnnn4)[C@H]3SC2)s1 [CEFAZOLIN SODIUM] | > 133 | > 133 | 54.2 | > 133
N=C(N)c1ccc(OCCCCCOc2ccc(C(=N)N)cc2)cc1 [PENTAMIDINE] | > 133 | > 133 | > 133 | > 133
CC(SC(=O)c1cccs1)C(=O)NCC(=O)O (stereo not drawn) [STEPRONIN] | > 133 | > 133 | > 133 | > 133
Nc1ccn([C@H]2CC[C@@H](CO)O2)c(=O)n1 [ZALCITABINE] | > 133 | > 133 | > 133 | > 133
C[C@@H]1CC[C@H]2[C@@H](C)C(=O)O[C@@H]3O[C@@]4(C)CC[C@@H]1[C@]32OO4 [ARTEMISININ] | > 133 | > 133 | > 133 | > 133
NCCCC(N)(C(=O)O)C(F)F (stereo not drawn) [EFLORNITHINE HYDROCHLORIDE] | > 133 | > 133 | > 133 | > 133
C=CC1=C(C(=O)O)N2C(=O)[C@@H](NC(=O)/C(=N\OCC(=O)O)c3csc(N)n3)[C@H]2SC1 [CEFIXIME] | > 133 | 89.4 | > 133 | > 133
CN(CCCN1c2ccccc2CCc2ccccc21)CC(=O)c1ccc(Cl)cc1 [LOFEPRAMINE] | > 133 | > 133 | > 133 | > 133
Fc1ccc([C@@H]2CCNC[C@H]2COc2ccc3c(c2)OCO3)cc1 [PAROXETINE HYDROCHLORIDE] | > 133 | > 133 | > 133 | > 133
CCC(=O)O[C@@H]1CC(=O)O[C@H](C)C/C=C/C=C/[C@H](O)[C@H](C)C[C@H](CC=O)[C@H](O[C@@H]2O[C@H](C)[C@@H](O[C@H]3C[C@@](C)(O)[C@@H](OC(=O)CC)[C@H](C)O3)[C@H](N(C)C)[C@H]2O)[C@H]1OC [MIDECAMYCIN] | 14.3 | > 133 | > 133 | > 133
CC(NC(C)(C)C)C(=O)c1cccc(Cl)c1 (stereo not drawn) [BUPROPION HYDROCHLORIDE] | > 133 | > 133 | > 133 | > 133
